Literature values, collected in patent US20250205268A1, “TREATMENT OF VIRUSES WITH ANTIVIRAL NUCLEOSIDES” (priority 2021, published 2025).

System: pestivirus and hepacivirus
Details: […] CHEMOTHER, 2003, 47 (1): 244-54; cited from earlier work

O=c1nc(NO)ccn1[C@@H]1O[C@H](CO)[C@@H](O)[C@H]1O [β-D-N(4)-hydroxycytidine, 1-((2R,3R,4S,5R)-3,4-dihydroxy-5-(hydroxymethyl)tetrahydrofuran-2-yl)-4-(hydroxyamino)pyrimidin-2 (1H)-one]
antiviral activities: antipestivirus and antihepacivirus activities
